Measured values: patent US8324258B2, “F1F0-ATPase inhibitors and related methods” (The Regents of the University of Michigan, priority 2007, dated 2012)

Experiments:
Ramos cells = test: Cytotoxicity (cell death) in Ramos cells; type: cell-based
Protocol: (§1) The compounds listed in Table 9 were tested for activity against F1F0-ATPase by measuring ATP synthesis and ATP hydrolysis. In addition, the compounds were assessed for cytotoxicity in Ramos cells Inhibition of ATP synthesis and hydrolysis by the F1F0-ATPase and cytotoxicity in Ramos cells was measured as described in K. M. Johnson et al. Chemistry & Biology 2005, 12, 485-496.

F1F0-ATPase [1] = biological target: T1, F1F0-ATPase (Bos taurus, UniProt P13621); test: Inhibition of ATP synthesis by the F1F0-ATPase; type: biochemical; conditions: IC40: concentration for 40% inhibition
Protocol: as §1

F1F0-ATPase [2] = biological target: T1, F1F0-ATPase; test: Inhibition of ATP hydrolysis by the F1F0-ATPase; type: biochemical; conditions: IC40: concentration for 40% inhibition
Protocol: as §1

Compound | EC50 (Ramos cells; Ramos cells) | ATP Synthesis (IC40 μM) (F1F0-ATPase [1]) | ATP Hydrolysis (IC40 μM) (F1F0-ATPase [2]) | EC50 (Ramos cells; Homo sapiens, Ramos)
COc1ccccc1NC(=NC(=O)c1cccc(Cl)c1)NCCc1c[nH]cn1 [III-11, (Z/E)-N-((2-(1H-imidazol-4-yl)ethylamino)(2-methoxyphenylamino)methylene)-3-chlorobenzamide] | > 30 µM | >10 µM | >30 µM | –
O=C(N=C(NCCc1c[nH]cn1)Nc1ccc2ccccc2c1)c1cccc(Cl)c1 [III-26, (Z/E)-N-((2-(1H-imidazol-4-yl)ethylamino)(naphthalen-2-ylamino)methylene)-3-chlorobenzamide] | > 10 µM | >10 µM | >10 µM | –
(Z/E)-N-((2-(1H-imidazol-5-yl)ethylamino)(4-(methylsulfonyl)phenylamino)methylene)-3-chlorobenzamide [III-36] | > 30 µM | >20 µM | >30 µM | –
O=C(/N=C(/NCCc1c[nH]cn1)Nc1cccc2[nH]ccc12)c1cccc(Cl)c1 [Compound V-1, (Z/E)-N-((2-(1H-imidazol-4-yl)ethylamino)(1H-indol-4-ylamino)methylene)-3-chlorobenzamide] | – | >10 µM | >10 µM | > 30 µM
O=C(/N=C(\Nc1ccc(-c2ccccc2)cc1)Nc1cccc2[nH]ccc12)c1cccc(Cl)c1 [IV-1, (Z/E)-N-((1H-indol-4-ylamino)(biphenyl-4-ylamino)methylene)-3-chlorobenzamide] | – | >10 µM | >30 µM | > 10 µM
O=C(N=C(NCCc1c[nH]cn1)Nc1cccc(-c2ccccc2)c1)c1cccc([N+](=O)[O-])c1 [VI-12, (Z/E)-N-((2-(1H-imidazol-4-yl)ethylamino)(biphenyl-3-ylamino)methylene)-3-nitrobenzamide] | > 10 µM | <10 µM | >30 µM | –
O=C(N=C(NCCc1c[nH]cn1)Nc1ccccc1Br)c1cccc(Cl)c1 [III-2, (Z/E)-N-((2-(1H-imidazol-4-yl)ethylamino)(2-bromophenylamino)methylene)-3-chlorobenzamide] | > 20 µM | <10 µM | >20 µM | –
O=C(N=C(NCCc1c[nH]cn1)Nc1cccc(-c2ccccc2)c1)c1ccc(Br)cc1 [VI-11, (Z/E)-N-((2-(1H-imidazol-4-yl)ethylamino)(biphenyl-3-ylamino)methylene)-4-bromobenzamide] | < 10 µM | <10 µM | >10 µM | –
CCc1cccc(NC(=NC(=O)c2cccc(Cl)c2)NCCc2c[nH]cn2)c1 [III-42] | > 20 µM | <10 µM | >20 µM | –
O=C(N=C(NCCc1c[nH]cn1)Nc1ccc(-c2ccccc2)cc1)c1cccc(F)c1 [II-8, (Z/E)-N-((2-(1H-imidazol-4-yl)ethylamino)(biphenyl-4-ylamino)methylene)-3-fluorobenzamide] | < 10 µM | >10 µM | >10 µM | –
Cc1cccc(NC(=NC(=O)c2cccc(Cl)c2)NCCc2c[nH]cn2)c1 [III-9, (Z/E)-N-((2-(1H-imidazol-4-yl)ethylamino)(m-toluidino)methylene)-3-chlorobenzamide] | > 30 µM | >10 µM | >20 µM | –
N#Cc1ccc(-c2ccc(NC(=NC(=O)c3cccc(Cl)c3)NCCc3c[nH]cn3)cc2)cc1 [III-21, (Z/E)-N-((2-(1H-imidazol-4-yl)ethylamino)(4′-cyanobiphenyl-4-ylamino)methylene)-3-chlorobenzamide] | < 10 µM | <10 µM | >30 µM | –
O=C(/N=C(/NCCc1c[nH]cn1)Nc1cccc2cc[nH]c12)c1cccc(Cl)c1 [Compound V-4, (Z/E)-N-((2-(1H-imidazol-4-yl)ethylamino)(1H-indol-7-ylamino)methylene)-3-chlorobenzamide] | – | >10 µM | >10 µM | > 30 µM
N#Cc1cccc(C(=O)N=C(NCCc2c[nH]cn2)Nc2cccc(-c3ccccc3)c2)c1 [VI-5, (Z/E)-N-((2-(1H-imidazol-4-yl)ethylamino)(biphenyl-3-ylamino)methylene)-3-cyanobenzamide] | > 10 µM | >10 µM | >30 µM | –
O=C(N=C(NCCc1c[nH]cn1)Nc1ccc(F)cc1)c1cccc(Cl)c1 [III-16, (Z/E)-N-((2-(1H-imidazol-4-yl)ethylamino)(4-fluorophenylamino)methylene)-3-chlorobenzamide] | > 30 µM | >20 µM | >30 µM | –
N#Cc1cccc(C(=O)N=C(NCCc2c[nH]cn2)Nc2ccc(-c3ccccc3)cc2)c1 [II-6, (Z/E)-N-((2-(1H-imidazol-4-yl)ethylamino)(biphenyl-4-ylamino)methylene)-3-cyanobenzamide] | > 30 µM | >20 µM | >30 µM | –
O=C(N=C(NCCc1c[nH]cn1)Nc1cccc(-c2ccccc2)c1)c1ccc([N+](=O)[O-])cc1 [VI-13, (Z/E)-N-((2-(1H-imidazol-4-yl)ethylamino)-(biphenyl-3-ylamino)methylene)-4-nitrobenzamide] | < 10 µM | <10 µM | >30 µM | –
COc1cccc(NC(=NC(=O)c2cccc(Cl)c2)NCCc2c[nH]cn2)c1 [III-12, (Z/E)-N-((2-(1H-imidazol-4-yl)ethylamino)(3-methoxyphenylamino)methylene)-3-chlorobenzamide] | > 30 µM | >20 µM | >30 µM | –
O=C(N=C(NCCc1c[nH]cn1)Nc1ccc(-c2ccccc2)cc1)c1ccc(F)cc1 [II-9, (Z/E)-N-((2-(1H-imidazol-4-yl)ethylamino)(biphenyl-4-ylamino)methylene)-4-fluorobenzamide] | > 30 µM | >20 µM | >30 µM | –
O=C(N=C(NCCc1c[nH]cn1)Nc1cccc(-c2ccccc2)c1)c1cccc(Cl)c1 [III-6, (Z/E)-N-((2-(1H-imidazol-4-yl)ethylamino)(biphenyl-3-ylamino)methylene)-3-chlorobenzamide] | < 10 µM | <10 µM | >10 µM | –
